Test results from publication PMC9694544, “Conteltinib (CT-707) in patients with advanced ALK-positive non-small cell lung cancer: a multicenter, open-label, first-in-human phase 1 study” (BMC Medicine, 2022).

How the values were obtained:
Pyk2 = system: Pyk2; design: method as in PMID 27638856; settings: less potent than the inhibition to ALK; cited from earlier work
ALK G1202R = ALK G1202R (Homo sapiens, UniProt Q9UM73, G1202R); assay: ALK enzymatic IC50, G1202R; assay type: biochemical
Source text: (§1) Supplement 12916_2022_2646_MOESM1_ESM.docx, table 1 | column: ALK Enzymatic IC50 (nM)

ALK L1196M = ALK L1196M (Homo sapiens, UniProt Q9UM73, L1196M); assay: ALK enzymatic IC50, L1196M; assay type: biochemical
Source text: as §1

[1] = system: xenograft models of ALK-positive NSCLC; settings: crizotinib-sensitive and crizotinib-resistant tumors; cited from earlier work
ALK G1269S = ALK G1269S (Homo sapiens, UniProt Q9UM73, G1269S); assay: ALK enzymatic IC50, G1269S; assay type: biochemical
Source text: as §1

ALK R1275Q = ALK R1275Q (Homo sapiens, UniProt Q9UM73, R1275Q); assay: ALK enzymatic IC50, R1275Q; assay type: biochemical
Source text: as §1

FAK = system: FAK; design: method as in PMID 27638856; settings: less potent than the inhibition to ALK; cited from earlier work
ALK WT = ALK WT (Homo sapiens, UniProt Q9UM73); assay: ALK enzymatic IC50, WT; assay type: biochemical
ALK F1174L = ALK F1174L (Homo sapiens, UniProt Q9UM73, F1174L); assay: ALK enzymatic IC50, F1174L; assay type: biochemical
Source text: as §1

[2] = system: brain metastasis of ALK-positive NSCLC; assay: Intracranial response in patients with measurable brain metastatic lesions; assay type: in vivo, human

COc1cc(N2CCC(N3CCN(C)CC3)CC2)ccc1Nc1nc2c(c(Nc3ccccc3S(=O)(=O)NC(C)C)n1)CCN2 [Conteltinib]
Pyk2 inhibition (Pyk2): inhibits
IC50 (ALK G1202R): 6.3 nM
IC50 (ALK L1196M): 3.8 nM
anti-tumor activity in xenograft models [1]: marked anti-tumor activity
IC50 (ALK G1269S): 8.4 nM
IC50 (ALK R1275Q): 1.2 nM
FAK inhibition (FAK): inhibits
IC50 (ALK WT): 1.5 nM
IC50 (ALK F1174L): 4.3 nM
Intracranial DCR (95% CI) ([2]; 300 mg BID (n=1)): 100.0% (2.5-100.0)
Intracranial ORR (95% CI) ([2]; 300 mg BID (n=1)): 0.0% (0.0-97.5)
Intracranial DCR (95% CI) ([2]; 450 mg QD (n=2)): 100.0% (15.8-100.0)
Intracranial ORR (95% CI) ([2]; 450 mg QD (n=2)): 50% (1.3-98.7)
Intracranial DCR (95% CI) ([2]; 600 mg QD (n=3)): 66.7% (9.4-99.2)
Intracranial ORR (95% CI) ([2]; 600 mg QD (n=3)): 33.3% (0.8-90.6)
